From PubChem BioAssay AID602129 (The Scripps Research Institute Molecular Screening Center, 2011)
pEC50: −log10 of the molar value. Activity calls are given as the source filed them. No rule for the calls is given here.

The compounds below were run against Mucolipin-3 (Homo sapiens) (UniProt Q8TDD5) (assay: activators of human MCOLN3 channel – cell-based, fluorescence, dose response, round 3, late-stage follow-up (AID 602129)). Conditions: HEK293 TRPML3 cells, calcium fluorescence.
Sequence of Mucolipin-3 (Homo sapiens) (Q8TDD5 whole entry, looked up): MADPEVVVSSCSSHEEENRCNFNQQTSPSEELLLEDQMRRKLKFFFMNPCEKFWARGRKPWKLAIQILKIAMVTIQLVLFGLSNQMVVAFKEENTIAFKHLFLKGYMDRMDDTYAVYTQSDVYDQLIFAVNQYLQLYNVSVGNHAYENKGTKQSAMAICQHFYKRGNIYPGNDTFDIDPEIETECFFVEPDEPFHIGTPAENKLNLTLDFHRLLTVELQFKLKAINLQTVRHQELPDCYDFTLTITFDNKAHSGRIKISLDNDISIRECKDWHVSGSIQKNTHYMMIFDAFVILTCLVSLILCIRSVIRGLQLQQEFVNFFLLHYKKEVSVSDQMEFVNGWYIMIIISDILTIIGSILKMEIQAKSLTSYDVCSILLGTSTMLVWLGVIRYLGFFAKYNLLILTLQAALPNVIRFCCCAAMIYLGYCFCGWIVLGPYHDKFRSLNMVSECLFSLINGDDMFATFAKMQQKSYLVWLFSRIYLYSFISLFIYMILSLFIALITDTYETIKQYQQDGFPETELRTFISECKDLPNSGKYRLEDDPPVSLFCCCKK
For `CCOc1ccc(S(=O)(=O)N2CCCCC2)c2ccccc12`, the pEC50 was 5.46.
With `Cc1onc(-c2ccc(Cl)cc2)c1-c1ccn(S(=O)(=O)C(F)(F)F)n1` the EC50 was > 29.9 µM (inactive).
For `CCOc1ccc(S(=O)(=O)N(CC)CC)c2ccccc12`, the EC50 was > 29.9 µM (inactive).
`CCOc1ccc(S(=O)(=O)N2CCCC2)c2ccccc12` was tested, and the EC50 was > 29.9 µM (inactive).
In the case of `CCOc1ccc(S(=O)(=O)NCc2ccc(OC)cc2)c2ccccc12`, the EC50 was > 29.9 µM (inactive).
With `Cc1onc(-c2ccc(Cl)cc2)c1-c1ccnn1S(=O)(=O)c1ccc(Cl)cc1` the EC50 was > 29.9 µM (inactive).
In the case of `Cc1onc(-c2ccc(Cl)cc2)c1-c1ccn(S(=O)(=O)c2ccc(C(F)(F)F)cc2)n1`, the EC50 was > 29.9 µM (inactive).
In the case of `CC(C)Oc1ccc(S(=O)(=O)N2CCCCCC2)c2ccccc12`, the EC50 was “inactive”.
For `CCCCNS(=O)(=O)c1ccc(OCC)c2ccccc12`, the EC50 was > 29.9 µM (inactive).
`Cc1onc(-c2ccc(Cl)cc2)c1-c1ccn(S(=O)(=O)c2ccccc2C(F)(F)F)n1` was tested, and the pEC50 was 5.45.
In the case of `Cc1onc(-c2ccc(Cl)cc2)c1-c1ccn(S(=O)(=O)c2cccc(Cl)c2)n1`, the pEC50 was 5.71.
`Cc1onc(-c2ccccc2)c1-c1ccn(S(=O)(=O)c2ccc(Cl)cc2)n1` was tested, and the EC50 was > 29.9 µM (inactive).
`COc1ccc(S(=O)(=O)n2ccc(-c3c(-c4ccc(Cl)cc4)noc3C)n2)cc1` was tested, and the pEC50 was 5.42.
With `CCOc1ccc(S(=O)(=O)N2CCSCC2)c2ccccc12` the EC50 was > 29.9 µM (inactive).
For `COc1ccc(-c2noc(C)c2-c2ccn(S(=O)(=O)c3ccc(C)cc3)n2)cc1`, the pEC50 was 5.52.
In the case of `Cc1onc(-c2ccc(Cl)cc2)c1-c1ccn(S(=O)(=O)c2ccccc2)n1`, the pEC50 was 5.62.
In the case of `Cc1onc(-c2ccc(Cl)cc2)c1-c1ccnn1S(=O)(=O)c1cccc(C(F)(F)F)c1`, the EC50 was > 29.9 µM (inactive).
`Cc1onc(-c2ccc(Cl)cc2)c1-c1ccn(S(=O)(=O)c2cccs2)n1` was tested, and the EC50 was > 29.9 µM (inactive).
In the case of `Cc1ccccc1S(=O)(=O)n1ccc(-c2c(-c3ccc(Cl)cc3)noc2C)n1`, the pEC50 was 5.31.
For `CCOc1ccc(S(=O)(=O)n2ccc(-c3c(-c4ccc(Cl)cc4)noc3C)n2)c2ccccc12`, the EC50 was > 29.9 µM (inactive).
`Cc1onc(-c2ccc(Cl)cc2)c1-c1ccn(S(=O)(=O)c2cccc3cccnc23)n1` was tested, and the EC50 was > 29.9 µM (inactive).
In the case of `CCOc1ccc(S(=O)(=O)NCc2ccncc2)c2ccccc12`, the EC50 was > 29.9 µM (inactive).
In the case of `Cc1ccc(S(=O)(=O)n2ccc(-c3c(-c4ccccc4)noc3C)n2)cc1`, the pEC50 was 5.84.
For `Cc1onc(-c2ccc(Cl)cc2)c1-c1ccn(S(=O)(=O)c2ccc(Cl)cc2)n1`, the EC50 was “inactive”.
Work on `Cc1onc(-c2ccc(Cl)cc2)c1-c1ccn(S(=O)(=O)c2ccccc2Cl)n1` yielded a pEC50 of 5.81.
For `CCOc1ccc(S(=O)(=O)N2CCN(c3ccccc3Cl)CC2)c2ccccc12`, the EC50 was > 29.9 µM (inactive).
Compound `COc1ccc(S(=O)(=O)N2CCCCCC2)c2ccccc12` has a pEC50 of 6.32.
In the case of `Cc1onc(-c2ccc(Cl)cc2)c1-c1ccn(S(C)(=O)=O)n1`, the EC50 was > 29.9 µM (inactive).
In the case of `CCOc1ccc(S(=O)(=O)N2CCN(C(=O)OC(C)(C)C)CC2)c2ccccc12`, the EC50 was > 29.9 µM (inactive).
For `CCOc1ccc(S(=O)(=O)N2CCOCC2)c2ccccc12`, the EC50 was > 29.9 µM (inactive).
`Cc1ccc(S(=O)(=O)n2ccc(-c3c(-c4ccc(F)cc4)noc3C)n2)cc1` was tested, and the pEC50 was 6.17.
Work on `Cc1onc(-c2ccc(Cl)cc2)c1-c1ccn(S(=O)(=O)c2cccc(C(F)(F)F)c2)n1` yielded a pEC50 of 5.48.
In the case of `Cc1onc(-c2ccccc2)c1-c1ccnn1S(=O)(=O)c1ccc(Cl)cc1`, the EC50 was > 29.9 µM (inactive).
`Cc1ccc(S(=O)(=O)n2nccc2-c2c(-c3ccccc3)noc2C)cc1` was tested, and the EC50 was > 29.9 µM (inactive).
